Experimental data from PMC10780011 (2023).

Columns and labels:
[1] = tested on: d(5′-CGCGAATTCGCG-3′)2 (DNA, duplex) CGCGAATTCGCG; test: ethidium bromide displacement, fluorescence quenching, double-log plot; conditions: 100 mM phosphate; pH 7.0, 298 K; apparent; ethidium bromide displaced; 20 μM DNA
[2] = tested on: d(5′-CGCGAATTCGCG-3′)2 (DNA, duplex) CGCGAATTCGCG; test: 1H NMR titration, NOESY; conditions: 100 mM phosphate, pH 7.0, 298 K, H2O:D2O 9:1

Row | Compound | Kb [1] | binding ([2]; minor and major groove, non-specific) | binding ([2]; 10 mM NaCl, partial intercalation T7/T8 and groove, precipitates without NaCl)
1 | [Ru+2].[Ru+2].[Ru+2].c1cc[cH-]c1.c1cc[cH-]c1.c1cc[cH-]c1.c1ccc(-c2ccc(-c3ccc(-c4ccccc4)cc3)cc2)cc1 | 2.803 ± 0.121 × 10^3 M^−1 |  | 
2 | [Ru+2].[Ru+2].c1cc[cH-]c1.c1cc[cH-]c1.c1ccc(-c2ccc(-c3ccc(-c4ccccc4)cc3)cc2)cc1 | 5.933 ± 0.001 × 10^3 M^−1 | yes | 
3 | [Ru+2].[Ru+2].c1cc[cH-]c1.c1cc[cH-]c1.c1ccc(-c2ccc(-c3ccccc3)cc2)cc1 | 0.815 ± 0.001 × 10^3 M^−1 |  | 
4 | [Ru+2].c1cc[cH-]c1.c1ccc(-c2ccc(-c3ccc(-c4ccccc4)cc3)cc2)cc1 | 8.111 ± 0.001 × 10^3 M^−1 |  | yes
5 | [Ru+2].c1cc[cH-]c1.c1ccc(-c2ccc(-c3ccccc3)cc2)cc1 | 3.532 ± 0.001 × 10^3 M^−1 |  | 
6 | [Ru+2].c1cc[cH-]c1.c1ccc(-c2ccccc2)cc1 | 2.330 ± 0.001 × 10^3 M^−1 |  | 
